Laboratory results: ChEMBL document CHEMBL1134198, “Structure-activity relationships of quinazoline derivatives: dual-acting compounds with inhibitory activities toward both TNF-alpha production and T cell proliferation” (Bioorg Med Chem Lett, 2001)

Tests used:
[1] = tested on: T-cell; assay: Inhibitory concentration against T cell proliferation using concanavalin A stimulated mice spleen cells; format: functional, cell-based; details: Mus musculus
[2] = Inhibitory concentration against TNF-alpha production from human peripheral blood mononuclear cells stimulated by LPS; format: functional
[3] = Inhibitory concentration against growth of LPS stimulated human peripheral blood mononuclear cells; format: functional

Compound | IC50 [1] | IC50 ([2]; Homo sapiens) | IC50 ([3]; Homo sapiens) | IC50 [2] | IC50 [3]
Oc1ccc2ncnc(NCCc3ccc(Cl)cc3)c2c1 | 1.4 µM | > 30 µM | > 30 µM |  | 
O=[N+]([O-])c1ccc2ncnc(NCCc3ccc(Cl)cc3)c2c1 | 3.2 µM | 14.6 µM | > 30 µM |  | 
Clc1ccc(CCNc2ncnc3ccc(Cl)cc23)cc1 | > 10 µM | > 30 µM | > 30 µM |  | 
CS(=O)(=O)N1CCN(c2cc3ncnc(NCCc4ccc(Cl)cc4)c3cc2[N+](=O)[O-])CC1 | 4.3 µM | > 30 µM | 4.5 µM |  | 
O=[N+]([O-])c1ccc2c(NCCc3ccc(Cl)cc3)ncnc2c1 | 5.6 µM | > 30 µM | > 30 µM |  | 
Clc1ccc(CCNc2ncnc3ccc(OCc4ccccc4)cc23)cc1 | > 10 µM | > 30 µM | > 30 µM |  | 
O=[N+]([O-])c1cc2c(NCCc3ccc(Cl)cc3)ncnc2cc1N1CCOCC1 | 8.3 µM | 24.8 µM | 22.5 µM |  | 
Nc1ccc2ncnc(NCCc3ccc(Cl)cc3)c2c1 | 2.6 µM | > 30 µM | > 30 µM |  | 
CNc1ccc2ncnc(NCCc3ccc(Cl)cc3)c2c1 | > 10 µM | > 30 µM | > 30 µM |  | 
O=CNc1ccc2ncnc(NCCc3ccc(Cl)cc3)c2c1 | > 10 µM | > 30 µM | > 30 µM |  | 
CN(C)c1cc2ncnc(NCCc3ccc(Cl)cc3)c2cc1[N+](=O)[O-] | 8.6 µM | 19.4 µM | 27.3 µM |  | 
O=[N+]([O-])c1cc2c(NCCc3ccc(Cl)cc3)ncnc2cc1N1CCNCC1 | 1.1 µM | 0.8 µM | 12.1 µM |  | 
COc1nc(NCCc2ccc(Cl)cc2)c2ccccc2n1 | > 10 µM | > 30 µM | > 30 µM |  | 
Nc1ccc2c(NCCc3ccc(Cl)cc3)ncnc2c1 | 3.4 µM | > 30 µM | > 30 µM |  | 
Clc1ccc(CCNc2ncnc3cc(Cl)ccc23)cc1 | > 10 µM | > 30 µM | > 30 µM |  | 
Clc1ccc(CCNc2ncnc3ccc(NCc4ccccc4)cc23)cc1 | > 10 µM | > 30 µM | > 30 µM |  | 
Clc1ccc(CCNc2ncnc3ccccc23)cc1 | 0.5 µM | > 30 µM | > 30 µM |  | 
O=[N+]([O-])c1cc2c(NCCc3ccc(Cl)cc3)ncnc2cc1N1CCN(c2ccccc2)CC1 | > 10 µM | > 30 µM | > 30 µM |  | 
O=[N+]([O-])c1cc2c(NCCc3ccc(Cl)cc3)ncnc2cc1N1CCN(c2ccccn2)CC1 | > 10 µM | > 30 µM | > 30 µM |  | 

Compound | IC50 [1] | IC50 ([2]; Homo sapiens) | IC50 ([3]; Homo sapiens) | IC50 [2] | IC50 [3]
CCNc1cc2ncnc(NCCc3ccc(Cl)cc3)c2cc1[N+](=O)[O-] | > 10 µM | > 30 µM | > 30 µM |  | 
Clc1ccc(CCNc2ncnc3ccc(Br)cc23)cc1 | 4.8 µM | > 30 µM | > 30 µM |  | 
O=[N+]([O-])c1cc2c(NCCc3ccc(Cl)cc3)ncnc2cc1N1CCCNCC1 | 0.9 µM | 2.1 µM | 9.8 µM |  | 
O=[N+]([O-])c1cc2c(NCCc3ccc(Cl)cc3)ncnc2cc1Cl | > 10 µM | > 30 µM | > 30 µM |  | 
CCOc1cc2ncnc(NCCc3ccc(Cl)cc3)c2cc1[N+](=O)[O-] |  | > 30 µM | > 30 µM |  | 
O=[N+]([O-])c1cc2c(NCCc3ccc(Cl)cc3)ncnc2cc1N1CCCCC1 | > 10 µM | > 30 µM | > 30 µM |  | 
CN1CCN(c2cc3ncnc(NCCc4ccc(Cl)cc4)c3cc2[N+](=O)[O-])CC1 | 1.2 µM | 1.4 µM | 22.1 µM |  | 
Fc1cc2ncnc(NCCc3ccc(Cl)cc3)c2cc1F |  | > 30 µM | > 30 µM |  | 
COc1cc2ncnc(NCCc3ccc(Cl)cc3)c2cc1OC | 1.4 µM | > 30 µM | > 30 µM |  | 
Cc1nc(NCCc2ccc(Cl)cc2)c2ccccc2n1 | 0.2 µM | > 30 µM | > 30 µM |  | 
COc1cc2ncnc(NCCc3ccc(Cl)cc3)c2cc1[N+](=O)[O-] |  | > 30 µM | > 30 µM |  | 
Clc1ccc(CCNc2nc(Cl)nc3ccccc23)cc1 | 1.2 µM | > 30 µM | > 30 µM |  | 
Clc1ccc(CCNc2nc(-c3ccccc3)nc3ccccc23)cc1 | > 10 µM | > 30 µM | > 30 µM |  | 
Cc1ccc2ncnc(NCCc3ccc(Cl)cc3)c2c1 | 0.8 µM | > 30 µM | > 30 µM |  | 
C[C@@H]1C[C@H]2[C@@H]3CCC4=CC(=O)C=C[C@]4(C)[C@@]3(F)[C@@H](O)C[C@]2(C)[C@@]1(O)C(=O)CO [DEXAMETHASONE] | 0.005 µM | 0.01 µM | 0.04 µM |  | 
CC(C)(S)[C@@H](N)C(=O)O [PENICILLAMINE] |  | > 30 µM | > 30 µM |  | 
COc1ccc(C2CNC(=O)C2)cc1OC1CCCC1 (centres undefined) [ROLIPRAM] | > 10 µM | 0.5 µM | > 30 µM |  | 
O=C(O)c1cc(/N=N/c2ccc(S(=O)(=O)Nc3ccccn3)cc2)ccc1O [SULFASALAZINE] | > 10 µM | > 30 µM | > 30 µM |  | 
AURANOFIN |  |  |  | > 30 µM | > 30 µM
